The values that follow come from US12545650B2, “Bisanthracene derivatives having solubilizing substituent, and organic electroluminescence device using same” (LG Chem, Ltd., priority 2020, dated 2026).

Molecules are shown by their SMILES.

This series in a line: Solubility test of PAPAP derivatives in cyclohexanone with thermal stirring. It is filed as physicochemical. The settings on record: 10 mg compound in 1 mL cyclohexanone, thermal stirring at about 100° C. The procedure: Solubility tests were performed on PAPAP-1 and PAPAP-0 obtained from the Synthetic Example using cyclohexanone as a solvent. 10 mg of each of PAPAP-1 and PAPAP-0 was measured, 1 mL of cyclohexanone was added thereto, and thermal stirring was performed at a temperature of about 100° C.
The solubilities of PAPAP-12 and PAPAP-1 were tested using cyclohexanone as a solvent. 10 mg of each of PAPAP-12 and PAPAP-1 was measured, 1 mL of cyclohexanone was added thereto, and thermal stirring was performed at a temperature of about 100° C.
`COc1ccc(-c2c3ccccc3c(-c3ccc(-c4c5ccccc5c(-c5ccc(C#N)cc5)c5ccccc45)cc3)c3ccccc23)cc1` [PAPAP-0, reference compound]: the solubility in cyclohexanone entry is “insoluble”.

On to `c1ccc(-c2ccccc2-c2c3ccccc3c(-c3ccc(-c4c5ccccc5c(-c5cccc(N(c6ccccc6)c6ccccc6)c5)c5ccccc45)cc3)c3ccccc23)cc1` [PAPAP-12], for which the solubility in cyclohexanone result was “soluble”.

As for `c1ccc(-c2ccccc2-c2c3ccccc3c(-c3ccc(-c4c5ccccc5c(-c5ccc(N(c6ccccc6)c6ccccc6)cc5)c5ccccc45)cc3)c3ccccc23)cc1` [PAPAP-1], the solubility in cyclohexanone result is on record as “soluble”.
